Patent US20260297508A1, “MODULATORS OF PROTEIN SECRETION” (SANOFI, priority 2023, published 2026)

Tests used:
[1] = tested on: biotin-induced antibody release, U2OS clone #7 cells; assay: High-throughput RUSH screen: biotin-induced cytoplasmic GFP signal decay (antibody release), U2OS clone #7; assay type: cell-based, human; settings: for secretion activator at both low and high concentration (consistently decreased fluorescent signal, among 20 best activators): Prestwick library; for decrease of intracytoplasmic GFP fluorescence signal (biotin-stimulated RUSH system): screening campaigns, summary
Experimental: FIGS. 4A-4C show the high-throughput screening of chemical compound libraries for the identification of modulators of protein secretion. […] U2OS clone #7 is plated in 384-well plates and incubated for 24 h before treatment with each compound of the Prestwick, ICCB Known Bioactives, or Autophagy Compound Library at 2 concentrations, low and high (with a 10-fold difference). […] The results of the Prestwick library screening at the low drug concentration are plotted. Brefeldin A was used as a positive control of the inhibition of secretion. The compounds causing a cytoplasmic GFP intensity below that observed for biotin-only treated cells are potential enhancers of protein secretion.
U2OS cells were transfected with the streptavidin-KDEL plasmid using Lipofectamine 2000 (Thermo Fisher Scientific) and selected in medium supplemented with G418 (400 μg/mL, Gibco-Invitrogen) for 2 weeks. Limiting dilution in 96-well plates was used for single cell isolation from the selected pool. Clones were amplified and selected based on streptavidin immunofluorescence. Clone #BD6 showing the highest streptavidin expression was further expanded in medium supplemented with G418 (200 μg/mL) and transfected with the anti-PD-L1 IgG RUSH plasmid using Lipofectamine 2000 and selected in medium supplemented with G418 (200 μg/mL) and hygromycin (100 μg/mL, Santa Cruz Biotechnology) for 2 weeks. Limiting dilution in 96-well plates was used for single cell isolation from clone #BD6-derived selected pool. Clones were amplified and selected based on GFP fluorescence and clone #7 was selected for further characterization and screening campaigns.
U2OS clone #7 cells were seeded in black 384-well imaging plates (Greiner bio one), 2,000 cells/well, and incubated for 24 h at 37° C. in a humidified incubator with 5% CO2. Cells were treated on the next day with the compounds from either the Prestwick library at […], the ICCB Known Bioactives library at 1/100^e or 1/1000^e, or the autophagy compound library at 10 μM or 1 μM for 4 h. […] Cells were then fixed as described above and processed for subsequent automated image acquisition using a robot-assisted IXM XL BioImager (Molecular Devices, Sunnyvale, CA, USA) equipped with a Sola light source (Lumencor, Beaverton, OR, USA), adapted excitation and emission filters (Semrock) a 16-bit monochrome sCMOS PCO.edge 5.5 camera (PCO, Kelheim, Germany). A 20× PlanAPO objective (Nikon, Tokyo, Japan) was used to acquire a minimum of 4 view fields in each well. The acquired images were processed using the open-access R software (https://www.r-project.org) with the help of freely available packages EBImage (available on the Bioconductor repository https://www.bioconductor.org), and RBioFormats (https://github.com/aoles/RBioFormats), and the custom packages MetaxpR (https://github.com/asauvat/MetaxpR) and MorphR (https://github.com/kroemerlab/MorphR). Nuclei were first detected using Hoechst 33342 signal and used as a marker to detect cytoplasmic areas based on GFP signal, allowing for the evaluation of cytoplasmic GFP intensity. Data were thereafter extracted and statistically evaluated using R (https://www.r-project.org). Data were normalized using negative and positive controls, reduced and transformed into a Z-score. The experiments were repeated manually at low scale with selected drugs to confirm their effects on secretion, in this second set of assays, U2OS clone #7 cells incubated with secretion inhibitors were fixed and stained with Hoechst as described above for imaging and viability determination based on cell counts.
We next sought to use clone #7 in screening campaigns for the identification of drugs capable of enhancing or inhibiting antibody secretion. […] Cell counting was facilitated by nuclear counterstaining with Hoechst 33324 in order to assess viability and distinguish drug effects on the secretion kinetics from direct cytotoxicity and select relevant drugs for further characterization. […]

SCAP = settings: cited from earlier work
[2] = tested on: biotin-induced antibody release, U2OS clone #7 cells; assay: Low-throughput validation by imaging of the biotin-induced antibody release (cytoplasmic GFP), clone #7; assay type: cell-based, human; settings: FIG. 5C
Experimental: FIGS. 5A-5C show selection of potential enhancers of protein secretion. FIGS. 5A and 5B) show dot plot representations of drugs efficiency based on their Z-scores measured at low and high drug concentration (FIG. 5A, Prestwick library; FIG. 5B, ICCB Known Bioactives and TargetMol Autophagy libraries). Compounds selected for further characterization are listed. (FIG. 5C) Clone #7 was treated with the indicated compounds, fixed and analyzed as described in FIG. 4A legend.
FIG. 6A-6C show validation of enhancers of protein secretion.
U2OS clone #7 cells were seeded in black 384-well imaging plates (Greiner bio one), 2,000 cells/well, and incubated for 24 h at 37° C. in a humidified incubator with 5% CO2. Cells were treated on the next day with the compounds from either the Prestwick library at […], the ICCB Known Bioactives library at 1/100^e or 1/1000^e, or the autophagy compound library at 10 μM or 1 μM for 4 h. […] Cells were then fixed as described above and processed for subsequent automated image acquisition using a robot-assisted IXM XL BioImager (Molecular Devices, Sunnyvale, CA, USA) equipped with a Sola light source (Lumencor, Beaverton, OR, USA), adapted excitation and emission filters (Semrock) a 16-bit monochrome sCMOS PCO.edge 5.5 camera (PCO, Kelheim, Germany). A 20× PlanAPO objective (Nikon, Tokyo, Japan) was used to acquire a minimum of 4 view fields in each well. […] Nuclei were first detected using Hoechst 33342 signal and used as a marker to detect cytoplasmic areas based on GFP signal, allowing for the evaluation of cytoplasmic GFP intensity. Data were thereafter extracted and statistically evaluated using R (https://www.r-project.org). […]
Medium- and high-throughput screenings often yield false positive and negative hits, calling for independent validation in low-throughput experiments with orthogonal technologies. In a first round of experiments, we evaluated the effects of shortlisted compounds with potential antibody secretion enhancer activity. […]

[3] = tested on: RUSH antibody secretion, U2OS clone #7 cells; assay: ELISA on immobilized PD-L1: RUSH antibody titer in supernatant of treated clone #7 cells; assay type: cell-based, human; settings: PD-L1 binding ELISA
Experimental: FIGS. 7A and 7B show validation of inhibitors of protein secretion. […] Clone #7 cells were treated with the indicated compounds and supernatants were assayed for PD-L1 binding. Brefeldin A was used as a protein secretion inhibitor positive control. […] Hoechst 33324 fluorescence was measured, which enabled to number adherent living cells in each well.
U2OS clone #7 cells were seeded in 6-well plates and kept for 24 h at 37° C. in a humidified incubator with 5% CO2. The next day, the supernatants were removed, cells were rinsed with 37° C. pre-heated PBS and new medium containing the chemical treatment was added for 4 h. […] Then supernatants were collected and used for the ELISA assay as follows. MaxiSorp 96-well plates (Thermo Fisher Scientific) were coated with 0.5 μg/mL hFc-human-PD-L1 (R&D Systems, Minneapolis, MN) in PBS for 5.5 h at RT. Coating solution was then removed and 2% BSA/PBS blocking solution was added overnight at 4° C. The next day, wells were washed 3 times with 0.5% BSA/0.05% Tween-20/PBS solution. Supernatants were added after a ⅓ dilution in 0.5% BSA/0.05% Tween-20/PBS, for 2.3 h at RT. Wells were washed 3 times with 0.5% BSA/0.05% Tween-20/PBS solution. Anti-human kappa light chain HRP-coupled antibody was added diluted in 0.5% BSA/0.05% Tween-20/PBS at 1/4000^e for 2.3 h at RT. Wells were washed 3 times with 0.5% BSA/0.05% Tween-20/PBS solution before incubation with substrate reagents pack (R&D Systems) for 15 min in the dark. Fifty μL of STOP solution (R&D Systems) were then added to each well and the absorbance in each well was subsequently measured at 450 nm, and 635 nm for background subtraction, using a VICTOR™ X4 (PerkinElmer, Waltham, MA).
Medium- and high-throughput screenings often yield false positive and negative hits, calling for independent validation in low-throughput experiments with orthogonal technologies. In a first round of experiments, we evaluated the effects of shortlisted compounds with potential antibody secretion enhancer activity. Compounds identified in the screening campaigns were tested again on clone #7 at a low concentration (FIG. 6A) or a ten-fold higher concentration (FIG. 6B) for their ability to increase antibody secretion. […] We further characterized these hits in an PD-L1 binding ELISA.

[4] = 4 h compound, then 40 μM biotin 1 h
[5] = ICCB Known Bioactives and TargetMol Autophagy libraries, 4 h compound, then 40 μM biotin 1 h

Molecule | secretion activator at both low and high concentration (consistently decreased fluorescent signal, among 20 best activators) [1, 4] | decrease of intracytoplasmic GFP fluorescence signal (biotin-stimulated RUSH system) [1] | further results
verteporfin | fulfilled these criteria |  | phototoxicity leading to GFP bleaching ([1]; data not shown): phototoxicity that leads to GFP bleaching
C[C@@H]1C[C@@H]([C@H](O)CC2CC(=O)NC(=O)C2)C(=O)[C@@H](C)C1 [cycloheximide, 4-[(2R)-2-[(1S,3S,5S)-3,5-dimethyl-2-oxocyclohexyl]-2-hydroxyethyl]piperidine-2,6-dione] | fulfilled these criteria | consistently decreased intracytoplasmic GFP fluorescence | 
O=C(O)CCNC(=O)c1ccc(/N=N/c2ccc(O)c(C(=O)O)c2)cc1 [balsalazide sodium] | fulfilled these criteria |  | 
C1N2CN3CN1CN(C2)C3 [methenamine, 1,3,5,7-tetrazatricyclo[3.3.1.13,7]decane] | fulfilled these criteria | consistently decreased intracytoplasmic GFP fluorescence | 
CC[C@H]1CN2CCc3cc(OC)c(OC)cc3[C@@H]2C[C@@H]1C[C@H]1NCCc2cc(OC)c(OC)cc21 [emetine] |  |  | activity as secretion activator at both low and high concentrations [1, 5]: active at both low and high concentrations
O[C@H]1[C@H]2c3cc4c(cc3CN3CCC(=C[C@@H]1O)[C@H]23)OCO4 [lycorine, 3,12-Didehydro-2′H-[1,3]dioxolo[4′,5′:9,10]galanthan-1α,2β-diol] |  | consistently decreased intracytoplasmic GFP fluorescence | SCAP inhibition (SCAP; orally active): potent and orally active SCAP inhibitor; SCAP protein level (SCAP; without changing its transcription): downregulates; efficiency as secretion activator, high concentration ([1]; ICCB Known Bioactives and TargetMol Autophagy libraries, high concentration): not among the 20 most active compounds at the high concentration; efficiency as secretion activator, low concentration ([1]; ICCB Known Bioactives and TargetMol Autophagy libraries, low concentration): more efficient than any other compound at low concentration; effect on secretion by cell imaging [2]: secretion activator effect; RUSH antibody titers in treated cell culture supernatant ([3]; summary): shown to increase RUSH antibody titers; effect on antibody secretion compared with sodium butyrate ([3]; 1 and 50 μM): milder than that of sodium butyrate; antibody secretion-stimulatory activity ([3]; lycorine tested at both 1 and 50 μM, 4 h compound, biotin 1 h): considered to be active
O=C1CC(c2ccccc2)Oc2cc(O)cc(O)c21 (stereo not drawn) [pinocembrin, 5,7-Dihydroxy-2-phenyl-2,3-dihydro-4H-chromen-4-one] |  | consistently decreased intracytoplasmic GFP fluorescence | activity as secretion activator at both low and high concentrations [1, 5]: active at both low and high concentrations
CCC1(CC)C(=O)C=CNC1=O [pyrithyldione, 3,3-diethyl-1H-pyridine-2,4-dione] | fulfilled these criteria | consistently decreased intracytoplasmic GFP fluorescence | 
C[C@]12CC[C@H](O)C[C@H]1CC[C@@H]1[C@@H]2C[C@@H](O)[C@]2(C)[C@@H](C3=CC(=O)OC3)CC[C@]12O [digoxigenin, 3-[(3S,5R,8R,9S,10S,12R,13S,14S,17R)-3,12,14-trihydroxy-10,13-dimethyl-1,2,3,4,5,6,7,8,9,11,12,15,16,17-tetradecahydrocyclopenta[a]phenanthren-17-yl]-2H-furan-5-one] | fulfilled these criteria | consistently decreased intracytoplasmic GFP fluorescence | 
C[C@H]1CCC/C=C/[C@@H]2C[C@H](O)C[C@H]2[C@H](O)/C=C/C(=O)O1 [brefeldin A] |  |  | inhibition of the biotin-induced decrease of the GFP signal ([1]; 4 h compound, then 40 μM biotin 1 h, screening): inhibited the biotin-induced decrease of the GFP signal
